biological target: T1, rat histamine H3 receptors (Rattus norvegicus, UniProt Q9QYN8); test: Rat H3 Binding (3H-N-methylhistamine displacement, frontal brain membranes); details: frozen rat frontal brain membranes; radioligand 1 nM 3H-N-methylhistamine; 1 hour incubation
T1 construct: Frozen rat frontal brain or frozen human post-mortem frontal brain is homogenized; from tissue; host or cells: rat frontal brain membranes
Protocol: The in vitro affinity of the compounds in the present invention at the rat or human histamine H3 receptors can be determined according to the following procedure. Frozen rat frontal brain or frozen human post-mortem frontal brain is homogenized in 20 volumes of cold 50 mM Tris HCl containing 2 mM MgCl2 (pH to 7.4 at 4 degrees C.). The homogenate is then centrifuged at 45,000 G for 10 minutes. The supernatant is decanted and the membrane pellet re-suspended by Polytron in cold 50 mM Tris HCl containing 2 mM MgCl2 (pH to 7.4 at 4 degrees C.) and centrifuged again. The final pellet is re-suspended in 50 mM Tris HCl containing 2 mM MgCl2 (pH to 7.4 at 25 degrees C.) at a concentration of 12 mg/mL. Dilutions of compounds are made in 10% DMSO/50 mM Tris buffer (pH 7.4) (at 10×final concentration, so that the final DMSO concentration is 1%). Incubations are initiated by the addition of membranes (200 microliters) to 96 well V-bottom polypropylene plates containing 25 microliters of drug dilutions and 25 microliters of radioligand (1 nM final concentration ^3H-N-methylhistamine). After a 1 hour incubation, assay samples are rapidly filtered through Whatman GF/B filters and rinsed with ice-cold 50 mM Tris buffer (pH 7.4) using a Skatron cell harvester. Radioactivity is quantified using a BetaPlate scintillation counter.

T1 sequence (Q9QYN8 whole entry): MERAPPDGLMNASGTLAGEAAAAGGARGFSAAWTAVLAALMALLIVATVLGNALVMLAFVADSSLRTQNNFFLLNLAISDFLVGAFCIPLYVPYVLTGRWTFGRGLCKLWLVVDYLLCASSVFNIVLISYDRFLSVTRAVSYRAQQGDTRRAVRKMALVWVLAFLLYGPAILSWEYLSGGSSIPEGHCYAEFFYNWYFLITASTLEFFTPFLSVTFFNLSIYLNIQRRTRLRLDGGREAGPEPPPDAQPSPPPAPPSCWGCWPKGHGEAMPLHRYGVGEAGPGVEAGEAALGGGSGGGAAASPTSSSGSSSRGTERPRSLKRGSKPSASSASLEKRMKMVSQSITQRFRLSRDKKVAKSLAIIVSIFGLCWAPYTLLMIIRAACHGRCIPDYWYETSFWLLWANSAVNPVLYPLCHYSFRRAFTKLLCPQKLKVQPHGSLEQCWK

Row | Compound | Ki
1 | COc1ccc(CN2CCN3C[C@H](COCCCN4CCCCC4)CC[C@H]3C2)cc1 (relative stereo) [Example 6] | 55 nM
2 | c1ccc(CN2CCN3C[C@H](COCCCN4CCCCC4)CC[C@H]3C2)cc1 (stereo in doubt) [Example 2, trans-2-Benzyl-7-(3-piperidin-1-ylpropoxymethyl)-octahydro-pyrido[1,2-a]pyrazine] | 125 nM
3 | c1ccc(CCN2CCN3C[C@H](COCCCN4CCCCC4)CC[C@H]3C2)cc1 (stereo in doubt) [Example 3, trans-2-Phenethyl-7-(3-piperidin-1-ylpropoxymethyl)-octahydro-pyrido[1,2-a]pyrazine] | 54 nM
4 | c1ccc(CCCN2CCN3C[C@H](COCCCN4CCCCC4)CC[C@H]3C2)cc1 (stereo in doubt) [Example 4, trans-2-(3-Phenylpropyl)-7-(3-piperidin-1-ylpropoxymethyl)-octahydro-pyrido[1,2-a]pyrazine] | 37 nM
5 | CC(=O)c1ccc(CN2CCN3C[C@H](COCCCN4CCCCC4)CC[C@H]3C2)cc1 (stereo in doubt) [Example 5, trans-1-{4-[7-(3-Piperidin-1-ylpropoxymethyl)-octahydro-pyrido[1,2-a]pyrazin-2-ylmethyl]-phenyl}-ethanone] | 35 nM
6 | COc1cccc(CN2CCN3C[C@H](COCCCN4CCCCC4)CC[C@H]3C2)c1 (stereo in doubt) [Example 7, trans-2-(3-Methoxybenzyl)-7-(3-piperidin-1-ylpropoxymethyl)-octahydro-pyrido[1,2-a]pyrazine] | 28 nM
7 | Fc1ccc(CN2CCN3C[C@H](COCCCN4CCCCC4)CC[C@H]3C2)cc1 (stereo in doubt) [Example 8, trans-2-(4-Fluorobenzyl)-7-(3-piperidin-1-ylpropoxymethyl)-octahydro-pyrido[1,2-a]pyrazine] | 26 nM
8 | Fc1cccc(CN2CCN3C[C@H](COCCCN4CCCCC4)CC[C@H]3C2)c1 (stereo in doubt) [Example 9, trans-2-(3-Fluorobenzyl)-7-(3-piperidin-1-ylpropoxymethyl)-octahydro-pyrido[1,2-a]pyrazine] | 9 nM
9 | Clc1ccc(CN2CCN3C[C@H](COCCCN4CCCCC4)CC[C@H]3C2)cc1 (stereo in doubt) [Example 10, trans-2-(4-Chlorobenzyl)-7-(3-piperidin-1-ylpropoxymethyl)-octahydro-pyrido[1,2-a]pyrazine] | 14 nM
10 | Clc1cccc(CN2CCN3C[C@H](COCCCN4CCCCC4)CC[C@H]3C2)c1 (stereo in doubt) [Example 11, trans-2-(3-Chlorobenzyl)-7-(3-piperidin-1-ylpropoxymethyl)-octahydro-pyrido[1,2-a]pyrazine] | 33 nM
11 | CC(=O)Nc1ccc(CN2CCN3C[C@H](COCCCN4CCCCC4)CC[C@H]3C2)cc1 (stereo in doubt) [Example 12, trans-N-{4-[7-(3-Piperidin-1-ylpropoxymethyl)-octahydro-pyrido[1,2-a]pyrazin-2-ylmethyl]-phenyl}-acetamide] | 70 nM
12 | CS(=O)(=O)c1ccc(CN2CCN3C[C@H](COCCCN4CCCCC4)CC[C@H]3C2)cc1 [Example 1, trans-(7R, 9aS)-2-(4-Methanesulfonylbenzyl)-7-(3-piperidin-1-ylpropoxymethyl)-octa-hydro-pyrido[1,2-a]pyrazine] | 42 nM

Results, then the compound that gave them:

Row | Ki | Compound
13 | 33 nM | c1cc(CN2CCN3C[C@H](COCCCN4CCCCC4)CC[C@H]3C2)ccn1 (stereo in doubt) [Example 13, trans-7-(3-Piperidin-1-yl-propoxymethyl)-2-pyridin-4-ylmethyl-octahydro-pyrido[1,2-a]pyrazine]
14 | 90 nM | c1ccc(CN2CCN3C[C@H](COCCCN4CCCCC4)CC[C@H]3C2)nc1 (stereo in doubt) [Example 15, trans-7-(3-Piperidin-1-yl-propoxymethyl)-2-pyridin-2-ylmethyl-octahydro-pyrido[1,2-a]pyrazine]
15 | 114 nM | CN1CCN2C[C@H](COCCCN3CCCCC3)CC[C@H]2C1 (stereo in doubt) [Example 16, trans-2-Methyl-7-(3-piperidin-1-ylpropoxymethyl)-octahydro-pyrido[1,2-a]pyrazine]
16 | 60 nM | CC(=O)c1ccc(CN2CCN3C[C@@H](COCCCN4CCCCC4)CC[C@H]3C2)cc1 (stereo in doubt) [Example 17, cis-1-{4-[7-(3-Piperidin-1-ylpropoxymethyl)-octahydro-pyrido[1,2-a]pyrazin-2-ylmethyl]-phenyl}-ethanone]
17 | > 69 nM | Clc1ccc(CN2CCN3C[C@@H](COCCCN4CCCCC4)CC[C@H]3C2)cc1 (stereo in doubt) [Example 18, cis-2-(4-Chlorobenzyl)-7-(3-piperidin-1-ylpropoxymethyl)-octahydro-pyrido[1,2-a]pyrazine]
18 | 26 nM | CS(=O)(=O)c1ccc(CN2CCN3C[C@@H](COCCCN4CCCCC4)CC[C@H]3C2)cc1 (stereo in doubt) [Example 21, cis-2-(4-Methanesulfonylbenzyl)-7-(3-piperidin-1-ylpropoxymethyl)-octahydro-pyrido[1,2-a]pyrazine]
19 | 155 nM | C1CCN(CCCOC[C@@H]2CC[C@H]3CNCCN3C2)CC1 (stereo in doubt) [Intermediate 3, trans-7-(3-Piperidin-1-ylpropoxymethyl)-octahydro-pyrido[1,2-a]pyrazine]
